Measurements reported in PMC5550455, “Unusual Inner-Salt Guaiazulene Alkaloids and bis-Sesquiterpene from the South China Sea Gorgonian Muriceides collaris” (Scientific Reports, 2017).
≈ marks a conversion by molar mass, not a printed value. Like-named read-outs stand apart in the source and are kept apart here.

Experiments:
[1] = test system: A549 human tumor cell line; assay: Cytotoxicity assay, MTT method, A549; assay type: cell-based
Protocol: The cytotoxicity of Fr. […] The IC50 value of each compound was calculated by Reed and Muench’s method. Experiments were repeated three times and carried out in triplicate.

[2] = test system: HeLa human tumor cell line; assay: Cytotoxicity assay, MTT method, HeLa; assay type: cell-based
Excerpt: (§1) A frozen specimen of Muriceides collaris (9.6 kg, wet weight) was homogenized and then extracted with MeOH four times (each time, 3 days) at room temperature. The combined solutions were concentrated in vacuo and the concentrated extract was subsequently desalted by redissolving with MeOH to yield a residue (221 g). The crude extract was subjected to silica gel vacuum liquid chromatography (VLC), eluting with a gradient of petroleum/acetone (from 10:0 to 1:1, v:v) and subsequently CH2Cl2/MeOH (from 20:1 to 0:1, v-v) to obtain nine fractions (Fr.A−Fr.I). Each fraction was detected by TLC, and was tested for their cytotoxicity against HeLa and K562 cell lines at 50 μg/mL. […] Fr.G (3.5 g) was then subjected to a Sephadex LH-20 column eluted with CH2Cl2/MeOH (1:1, v/v) to give […]. Fr.G-3 (1.018 g) was separated by silica gel CC (CH2Cl2/MeOH, 30:1, v-v) to give six subfractions (Fr.G-3-1 to Fr.G-3-6). Fr.G-3-2 (223 mg) was purified by ODS CC with a gradient of MeOH/H2O (from 20% to 100%) to yield four subfractions (Fr.G-3-2-1 to Fr.G-3-2-4). Fr.G-3-2-3 (25.0 mg) was purified by semi-preparative HPLC (ODS, 5 μm, 250 × 10 mm; MeOH/H2O, 65:35, v/v; 1.5 mL/min) to afford muriceidines A (1, 10.3 mg) and B (2, 9.6 mg). Fr.G-3-4 (137 mg) was purified by ODS column chromatograph with a gradient of MeOH/H2O (from 20% to 100%) to yield four subfractions (Fr.G-3-4-1 to Fr.G-3-4-4). And Fr.G-3-4-1 (9.6 mg) was further purified by semi-preparative HPLC (ODS, 5 μm, 250 × 10 mm; MeOH/H2O, 60:40, v/v; 1.5 mL/min) to afford muriceidine C (3, 4.6 mg). Similarly, muriceidone A (4, 3.7 mg) and the co-isolated known 3-formylguaiazulene (6, 9.1 mg) was obtained in subfraction Fr. […] And GA (5, 1.5 mg) was obtained in subfraction Fr. […] Chiral seperations of partial 2 [Daicel Chiralpack IB, 5 μm, 4.6 mm × 250 mm], 3 [Daicel Chiralpack IC, 5 μm, 4.6 mm × 250 mm; MeOH, 1.5 mL/min], and 4 [Daicel Chiralpack IC, 5 μm, 4.6 mm × 250 mm; Hexane/isopropyl alcohol 97:3, 1.5 mL/min] were performed on Agilent analytical HPLC system to afford optically pure (+)-2 (0.9 mg), (−)-2 (1.2 mg), (+)-3 (2.5 mg), (−)-3 (2.2 mg), (+)-4 (1.5 mg), and (−)-4 (1.6 mg) (Fig. S1).
(§2) The cytotoxicity of Fr. A–I against K562 and HeLa cell lines and compounds 1–4 against K562, HeLa, A-549, and HL-60 human tumor cell lines were determined by MTT method with Adriamycin as a positive control. The IC50 value of each compound was calculated by Reed and Muench’s method. Experiments were repeated three times and carried out in triplicate.

[3] = test system: K562 human tumor cell line; assay: Cytotoxicity assay, MTT method, K562; assay type: cell-based
Excerpt: as §1, §2

[4] = test system: HL-60 human tumor cell line; assay: Cytotoxicity assay, MTT method, HL-60; assay type: cell-based; settings: HL-60 cell line
Protocol: as §2

[5] = test system: larvae of the barnacle Balanus albicostatus; assay: Antifouling assay, barnacle larval settlement and mortality; assay type: in vivo, Balanus albicostatus Pilsbry; settings: Fistulobalanus albicostatus, read-out: EC50 antifouling activity (50% of larval population inhibited to settle)
Protocol: The antifouling activity of compounds 1–6 against larval of the barnacle Balanus albicostatus Pilsbry were determined according to the literature. EC50 was calculated as the concentration where 50% of the larval population was inhibited to settle as compared to the control while LC50 was calculated as the concentration where 50% of the larval population was dead. Experiments were repeated three times and carried out in triplicate.

[6] = Homo sapiens, HL-60, MTT method

SMILES | IC50 ([1]; Homo sapiens) [µM] | IC50 ([2]; Homo sapiens, HeLa) [µM] | IC50 ([3]; Homo sapiens, K562, MTT method) [µM] | IC50 [4, 6] [µM] | IC50 ([3]; MTT method) [µM] | IC50 ([4]; MTT method) [µM] | IC50 [2] [µM] | IC50 [1] [µM] | EC50 [5] [µg/mL]
Cc1cc(/C=C2/C(C(=O)O)=NCCC2O)c2c(C)ccc(C(C)C)cc1-2 (racemic) [compound 2, (±)-Muriceidine B] | > 100 | > 100 | > 100 | > 100 |  |  |  |  | 
COC1CCN=C(C(=O)O)/C1=C/c1cc(C)c2cc(C(C)C)ccc(C)c1-2 (racemic) [compound 3, (±)-Muriceidine C] | 82.7 | > 100 | 3.68 | 2.19 | 3.7 | 2.2 |  |  | 
CC1=CC(=O)C2(C3C(=O)c4c(cc(C(C)C)c(C=O)c4C)C3(C)O)C(C)=CC=C(C(C)C)C=C12 (racemic) [compound 4, (±)-Muriceidone A] | > 100 |  | > 100 | > 100 |  |  | > 100 |  | 
CC1=CC(=O)C2(C3C(=O)c4c(cc(C(C)C)c(C=O)c4C)C3(C)O)C(C)=CC=C(C(C)C)C=C12 (single isomer, unassigned; (+)) [(+)-4] |  |  |  |  | 88.4 | 54.2 | 42.7 | > 100 | 
CC1=CC(=O)C2(C3C(=O)c4c(cc(C(C)C)c(C=O)c4C)C3(C)O)C(C)=CC=C(C(C)C)C=C12 (single isomer, unassigned; (-)) [(−)-4] |  |  |  |  | > 100 | > 100 | 40 | > 100 | 
Cc1cc(/C=C2/C(C(=O)O)=NCC[C@@H]2O)c2c(C)ccc(C(C)C)cc1-2 [(+)-2] | > 100 | > 100 | > 100 | > 100 |  |  |  |  | 
CO[C@H]1CCN=C(C(=O)O)/C1=C/c1cc(C)c2cc(C(C)C)ccc(C)c1-2 [(+)-3] | > 100 | 53.7 | 47.2 | 22.7 |  |  |  |  | 
Cc1cc(/C=C2/C(C(=O)O)=NCC[C@H]2O)c2c(C)ccc(C(C)C)cc1-2 [(−)-2] | > 100 | > 100 | > 100 | > 100 |  |  |  |  | 
CO[C@@H]1CCN=C(C(=O)O)/C1=C/c1cc(C)c2cc(C(C)C)ccc(C)c1-2 [(−)-3] | > 100 | 53.2 | 53.2 | 5.08 |  | 5.1 |  |  | 
COc1cccc2c1C(=O)c1c(O)c3c(c(O)c1C2=O)C[C@@](O)(C(=O)CO)C[C@@H]3O[C@H]1C[C@H](N)[C@H](O)[C@H](C)O1 [Adramycin, Adriamycin, reference compound] | 0.6 | 0.6 | 0.2 | 0.3 |  |  |  |  | 
Cc1cc(/C=C2\CCCN=C2C(=O)O)c2c(C)ccc(C(C)C)cc1-2 [compound 1, Muriceidine A] | > 100 | 17.9 | 8.37 | > 100 | 8.4 |  |  |  | 11.9 (≈ 35.5 µM)
Cc1cc(C=O)c2c(C)ccc(C(C)C)cc1-2 [compound 6, 3-formyl guaiazulene] |  |  |  |  |  |  |  |  | 2.39 (≈ 10.6 µM)
